Data published in PubChem BioAssay (NCI).
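Where inhibition never reached the appropriate level, the endpoint shown equals the highest concentration tested. Otherwise, values were interpolated linearly from a five-concentration, 48-hour dose response in 96-well plates. GI50 = concentration required for 50% inhibition of growth. TGI is the concentration that stops growth completely.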

Experiments:
Assay in all cases: NCI anticancer screen, dose series, 48 h
COLO 205 colon = system: COLO 205 colon
SNB-19 CNS = system: SNB-19 CNS
UACC-257 melanoma = system: UACC-257 melanoma
OVCAR-5 ovarian = system: OVCAR-5 ovarian
SW-620 colon = system: SW-620 colon
NCI-H23 lung = system: NCI-H23 lung
NCI-H226 lung = system: NCI-H226 lung
NCI-H460 lung = system: NCI-H460 lung
MALME-3M melanoma = system: MALME-3M melanoma
SK-MEL-2 melanoma = system: SK-MEL-2 melanoma
OVCAR-4 ovarian = system: OVCAR-4 ovarian
UO-31 renal = system: UO-31 renal
DU-145 prostate = system: DU-145 prostate
HCT-116 colon = system: HCT-116 colon
TK-10 renal = system: TK-10 renal
HL-60(TB) leukemia = system: HL-60(TB) leukemia
RPMI-8226 leukemia = system: RPMI-8226 leukemia
EKVX NSCLC = system: EKVX NSCLC
HOP-62 NSCLC = system: HOP-62 NSCLC
MCF7 breast = system: MCF7 breast
U251 CNS = system: U251 CNS
SK-MEL-5 melanoma = system: SK-MEL-5 melanoma
PC-3 prostate = system: PC-3 prostate
KM12 colon = system: KM12 colon
SR leukemia = system: SR leukemia
SK-OV-3 ovarian = system: SK-OV-3 ovarian
M14 melanoma = system: M14 melanoma
LOX IMVI melanoma = system: LOX IMVI melanoma
HCT-15 colon = system: HCT-15 colon
ACHN renal = system: ACHN renal
OVCAR-3 ovarian = system: OVCAR-3 ovarian
T-47D breast = system: T-47D breast
HS 578T breast = system: HS 578T breast
HT29 colon = system: HT29 colon
NCI/ADR-RES ovarian = system: NCI/ADR-RES ovarian
IGROV1 ovarian = system: IGROV1 ovarian
NCI-H522 lung = system: NCI-H522 lung
SN12C renal = system: SN12C renal
MOLT-4 leukemia = system: MOLT-4 leukemia
K-562 leukemia = system: K-562 leukemia
OVCAR-8 ovarian = system: OVCAR-8 ovarian
RXF 393 renal = system: RXF 393 renal
SF-539 CNS = system: SF-539 CNS
BT-549 breast = system: BT-549 breast
CCRF-CEM leukemia = system: CCRF-CEM leukemia
HCC-2998 colon = system: HCC-2998 colon
CAKI-1 renal = system: CAKI-1 renal
SF-295 CNS = system: SF-295 CNS
MDA-MB-435 = system: MDA-MB-435
A498 renal = system: A498 renal
HOP-92 NSCLC = system: HOP-92 NSCLC
UACC-62 melanoma = system: UACC-62 melanoma
SK-MEL-28 melanoma = system: SK-MEL-28 melanoma
SNB-75 CNS = system: SNB-75 CNS
SF-268 CNS = system: SF-268 CNS
MDA-MB-231 breast = system: MDA-MB-231 breast
786-0 renal = system: 786-0 renal
A549 NSCLC = system: A549 NSCLC

## O=Cc1cn(Cc2ccccc2)c2ccccc12
COLO 205 colon
  GI50: 0.438 µM
  TGI: > 32.4 µM
SNB-19 CNS
  GI50: 75.4 µM
  TGI: > 100 µM
UACC-257 melanoma
  GI50: 3.44 µM
  TGI: 19.5 µM
OVCAR-5 ovarian
  GI50: 0.238 µM
SW-620 colon
  GI50: 45.6 µM
  TGI: > 100 µM
NCI-H23 lung
  GI50: 37.9 µM
  TGI: > 100 µM
NCI-H226 lung
  GI50: 0.916 µM
  TGI: 3.72 µM
NCI-H460 lung
  GI50: 0.279 µM
  TGI: > 100 µM
MALME-3M melanoma
  GI50: > 56 µM
  TGI: > 100 µM
SK-MEL-2 melanoma
  GI50: 8.62 µM
  TGI: 60.6 µM
OVCAR-4 ovarian
  GI50: 5.83 µM
  TGI: > 100 µM
UO-31 renal
  GI50: 18.2 µM
  TGI: > 100 µM
DU-145 prostate
  GI50: > 68.2 µM
  TGI: > 100 µM
HCT-116 colon
  GI50: 13.7 µM
  TGI: > 100 µM
TK-10 renal
  GI50: 0.946 µM
  TGI: 9 µM
HL-60(TB) leukemia
  GI50: 16.9 µM
  TGI: > 80.5 µM
RPMI-8226 leukemia
  GI50: 6.39 µM
  TGI: 47.7 µM
EKVX NSCLC
  GI50: 22.8 µM
  TGI: > 81 µM
HOP-62 NSCLC
  GI50: 21.8 µM
  TGI: > 100 µM
MCF7 breast
  GI50: 30.7 µM
  TGI: > 100 µM
U251 CNS
  GI50: 31.5 µM
  TGI: > 100 µM
SK-MEL-5 melanoma
  GI50: 18.7 µM
  TGI: > 70 µM
PC-3 prostate
  GI50: 35.7 µM
  TGI: > 100 µM
KM12 colon
  GI50: 53.3 µM
  TGI: > 100 µM
SR leukemia
  GI50: > 35.4 µM
  TGI: > 82 µM
SK-OV-3 ovarian
  GI50: 4.04 µM
  TGI: > 100 µM
M14 melanoma
  GI50: 43.4 µM
  TGI: > 100 µM
LOX IMVI melanoma
  GI50: 24.4 µM
  TGI: > 100 µM
HCT-15 colon
  GI50: 52.4 µM
  TGI: > 100 µM
ACHN renal
  GI50: 33.6 µM
  TGI: > 100 µM
OVCAR-3 ovarian
  GI50: 21 µM
  TGI: > 67.5 µM
T-47D breast
  GI50: 3.12 µM
  TGI: > 100 µM
HS 578T breast
  GI50: 30.5 µM
  TGI: > 100 µM
HT29 colon
  GI50: 61.5 µM
  TGI: > 100 µM
NCI/ADR-RES ovarian
  GI50: 35.7 µM
  TGI: > 100 µM
IGROV1 ovarian
  GI50: 0.5 µM
  TGI: > 38.1 µM
NCI-H522 lung
  GI50: > 100 µM
  TGI: > 100 µM
SN12C renal
  GI50: 49.2 µM
  TGI: > 100 µM
MOLT-4 leukemia
  GI50: 21.1 µM
  TGI: > 100 µM
K-562 leukemia
  GI50: 18.7 µM
  TGI: > 100 µM
OVCAR-8 ovarian
  GI50: 43.5 µM
  TGI: > 100 µM
RXF 393 renal
  GI50: > 47.7 µM
  TGI: 97.7 µM
SF-539 CNS
  GI50: 43.7 µM
  TGI: > 100 µM
BT-549 breast
  GI50: 29.2 µM
  TGI: > 96.8 µM
CCRF-CEM leukemia
  GI50: 41.8 µM
  TGI: > 100 µM
HCC-2998 colon
  GI50: 21.9 µM
  TGI: > 100 µM
CAKI-1 renal
  GI50: < 0.0426 µM
  TGI: 0.547 µM
SF-295 CNS
  GI50: 5.15 µM
  TGI: > 63.4 µM
MDA-MB-435
  GI50: 46.2 µM
  TGI: > 100 µM
A498 renal
  GI50: 0.163 µM
  TGI: 0.389 µM
HOP-92 NSCLC
  GI50: 20.6 µM
  TGI: > 100 µM
UACC-62 melanoma
  GI50: 2.31 µM
  TGI: 19.4 µM
SK-MEL-28 melanoma
  GI50: > 57.8 µM
  TGI: > 100 µM
SNB-75 CNS
  GI50: 27.1 µM
  TGI: > 100 µM
SF-268 CNS
  GI50: 52.1 µM
  TGI: > 100 µM
MDA-MB-231 breast
  GI50: 38.7 µM
  TGI: > 100 µM
786-0 renal
  GI50: 33.1 µM
  TGI: 97.8 µM
A549 NSCLC
  GI50: 35 µM
  TGI: > 100 µM
